Test results taken from patent publication US20130310344A1, “N-ACYLSULFONAMIDE APOPTOSIS PROMOTERS” (ASTRAZENECA AB, priority 2010, published 2013).
pIC50: −log10 of the molar value. Structures can show the parent of a compound that is named as a salt.

Columns and labels:
Bcl-XL = target: T1, Bcl-XL (Homo sapiens, UniProt Q07817); assay: Bcl-XL FP assay (competitive fluorescence polarization binding assay, FITC-Bim BH-3 peptide tracer); conditions: C-terminal 6×HIS tagged Bcl-XL (aa 1-209), 0.8 nM; 2 nM FITC-Bim peptide tracer
T1 construct: a C-terminal 6×HIS tagged Bcl-XL (aa 1-209); 6xHis (C)
T1 sequence (Q07817 1-209): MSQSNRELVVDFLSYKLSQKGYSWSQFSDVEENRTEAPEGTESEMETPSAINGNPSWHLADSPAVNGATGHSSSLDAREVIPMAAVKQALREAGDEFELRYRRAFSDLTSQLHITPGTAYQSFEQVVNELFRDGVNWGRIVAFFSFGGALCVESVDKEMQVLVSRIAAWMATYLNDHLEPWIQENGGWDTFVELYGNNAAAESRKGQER
From the text: (§1) Bcl-xL and Bcl-2 FP binding affinity of compound(s) of Formulae (I), (I-a), (I-b), (I-c), (I-d) and/or (I-e) may be determined using a variety of known methods. One such assay is a sensitive and quantitative in vitro binding assay using fluorescence polarization (“FP”) described by Wang, J.-L.; Zhang, Z-J.; Choksi, S.; Sjam. S.; Lu, Z.; Croce, C. M.; Alnemri, E. S.; Komgold, R.; Huang, Z. Cell permeable Bcl-2 binding peptides: a chemical approach to apoptosis induction in tumor cells. Cancer Res. 2000, 60, 1498-1502).
(§2) Additionally, the binding affinity of compound(s) of Formulae (I), (I-a), (I-b), (I-c), (I-d) and/or (I-e) to Bcl-2 protein in vitro was determined by a competitive binding assay based on fluorescence polarization. For example, fluorescence polarization (“FP”) assays may be developed using a c-terminal 6×HIS tagged Bcl-2 (aa 1-204) and a C-terminal 6×HIS tagged Bcl-XL (aa 1-209). […] Dilutions of either Bcl-2 (1.3 nM) or Bcl-XL (0.8 nM) may be added to serial dilutions of antagonist and incubated for one hour prior to the addition of 2 nM of fluorescent peptide tracer (Anaspec, Fremont, Calif.) in the assay buffer. Final assay buffer conditions may be 20 mM HEPES, pH 7.5, 1 mM DTT, 0.005% Tween-20 and 50 mM NaCl. Samples may be read after 20-minute incubation. Fluorescence polarization values may be plotted as a function of the antagonist concentration.

Bcl-2 = target: T2, Bcl-2 (Homo sapiens, UniProt P10415); assay: Bcl-2 FP assay (competitive fluorescence polarization binding assay, FITC-Bim BH-3 peptide tracer); conditions: c-terminal 6×HIS tagged Bcl-2 (aa 1-204), 1.3 nM; 2 nM FITC-Bim peptide tracer
T2 construct: a c-terminal 6×HIS tagged Bcl-2 (aa 1-204); 6xHis (C)
T2 sequence (P10415 1-204): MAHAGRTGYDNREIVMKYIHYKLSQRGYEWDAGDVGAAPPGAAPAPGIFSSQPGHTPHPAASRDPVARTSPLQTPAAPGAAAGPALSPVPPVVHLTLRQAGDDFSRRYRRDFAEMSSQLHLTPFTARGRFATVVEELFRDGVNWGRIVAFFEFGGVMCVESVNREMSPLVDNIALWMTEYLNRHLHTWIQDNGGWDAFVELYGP
From the text: as §1, §2

**Q.** What does the source list for `CN(CCO)CC[C@H](CSc1ccccc1)Nc1ccc(S(=O)(=O)NC(=O)c2ccc(N3CCC([C@@H](O)c4ccccc4-c4ccc(Cl)cc4)CC3)cc2)cc1S(=O)(=O)C(F)(F)F` [Example 3, 4-(4-((R)-(4′-chlorobiphenyl-2-yl)(hydroxy)methyl)piperidin-1-yl)-N-(4-((R)-4-((2-hydroxyethyl)(methyl)amino)-1-(phenylthio)butan-2-ylamino)-3-(trifluoromethylsulfonyl)phenylsulfonyl)benzamide]?
**A.** pIC50 (Bcl-XL): 9.00; pIC50 (Bcl-2): > 9.52

**Q.** With `CCOP(=O)(OCC)O[C@@H](c1ccccc1-c1ccc(Cl)cc1)C1CCN(c2ccc(C(=O)NS(=O)(=O)c3ccc(N[C@H](CCN4CCOCC4)CSc4ccccc4)c(S(=O)(=O)C(F)(F)F)c3)cc2)CC1` [Example 29, (R)-(4′-chlorobiphenyl-2-yl)(1-(4-(4-((R)-4-morpholino-1-(phenylthio)butan-2-ylamino)-3-(trifluoromethylsulfonyl)phenylsulfonylcarbamoyl)phenyl)piperidin-4-yl)methyl diethyl phosphate, hydrochloride salt] as the compound, how does the pIC50 (Bcl-XL) read?
**A.** Its pIC50 is 7.92.

**Q.** And the pIC50 (Bcl-2)?
**A.** Its pIC50 is 7.52.

**Q.** `CN(CCOP(=O)(O)O)CC[C@H](CSc1ccccc1)Nc1ccc(S(=O)(=O)NC(=O)c2ccc(N3CCC([C@@H](O)c4ccccc4-c4ccc(Cl)cc4)CC3)cc2)cc1S(=O)(=O)C(F)(F)F` [Example 9, 2-(((R)-3-(4-(N-(4-(4-((R)-(4′-chlorobiphenyl-2-yl)(hydroxy)methyl)piperidin-1-yl)benzoyl)sulfamoyl)-2-(trifluoromethylsulfonyl)phenylamino)-4-(phenylthio)butyl)(methyl)amino)ethyl dihydrogen phosphate, hydrochloride salt] was tested. Which pIC50 (Bcl-XL) did it give?
**A.** Its pIC50 is 9.00.

**Q.** What about the pIC50 (Bcl-2) of the same compound?
**A.** Its pIC50 is 9.05.

**Q.** With `CNCC(=O)N[C@@H](c1ccccc1-c1ccc(Cl)cc1)C1CCN(c2ccc(C(=O)NS(=O)(=O)c3ccc(N[C@H](CCN4CCOCC4)CSc4ccccc4)c(S(=O)(=O)C(F)(F)F)c3)cc2)CC1` [Example 34, 4-(4-((R)-(4′-chlorobiphenyl-2-yl)(2-(methylamino)acetamido)methyl)piperidin-1-yl)-N-(4-((R)-4-morpholino-1-(phenylthio)butan-2-ylamino)-3-(trifluoromethylsulfonyl)phenylsulfonyl)benzamide, hydrochloride salt] as the compound, how does the pIC50 (Bcl-XL) read?
**A.** The pIC50 was 7.72.

**Q.** What about the pIC50 (Bcl-2) of the same compound?
**A.** Its pIC50 is 7.57.

**Q.** `CC(C)(C)OP(=O)(O)OCO[C@@H](c1ccccc1-c1ccc(Cl)cc1)C1CCN(c2ccc(C(=O)NS(=O)(=O)c3ccc(N[C@H](CCN4CCOCC4)CSc4ccccc4)c(S(=O)(=O)C(F)(F)F)c3)cc2)CC1` [Example 28, tert-Butyl((R)-(4′-chlorobiphenyl-2-yl)(1-(4-(4-((R)-4-morpholino-1-(phenylthio)butan-2-ylamino)-3-(trifluoromethylsulfonyl)phenylsulfonylcarbamoyl)-phenyl)piperidin-4-yl)methoxy)methyl hydrogen phosphate] was tested. Which pIC50 (Bcl-XL) did it give?
**A.** Its pIC50 is 8.70.

**Q.** And the pIC50 (Bcl-2)?
**A.** The pIC50 was 8.40.

**Q.** With `O=C(NS(=O)(=O)c1ccc(N[C@H](CCN2CCOCC2)CSc2ccccc2)c(S(=O)(=O)C(F)(F)F)c1)c1ccc(N2CCC([C@H](O)c3ccccc3-c3ccc(Cl)cc3)CC2)cc1` [Example 14, 4-(4-((S)-(4′-chlorobiphenyl-2-yl)(hydroxy)methyl)piperidin-1-yl)-N-(4-((R)-4-morpholino-1-(phenylthio)butan-2-ylamino)-3-(trifluoromethylsulfonyl)phenylsulfonyl)benzamide] as the compound, how does the pIC50 (Bcl-XL) read?
**A.** Its pIC50 is 7.11.

**Q.** What about the pIC50 (Bcl-2) of the same compound?
**A.** Its pIC50 is 6.60.

**Q.** How did the pIC50 (Bcl-XL) turn out when `COP(=O)(O)O[C@@H](c1ccccc1-c1ccc(Cl)cc1)C1CCN(c2ccc(C(=O)NS(=O)(=O)c3ccc(N[C@H](CCN4CCOCC4)CSc4ccccc4)c(S(=O)(=O)C(F)(F)F)c3)cc2)CC1` [Example 30, (R)-(4′-chlorobiphenyl-2-yl)(1-(4-(4-((R)-4-morpholino-1-(phenylthio)butan-2-ylamino)-3-(trifluoromethylsulfonyl)phenylsulfonylcarbamoyl)phenyl)piperidin-4-yl)methyl methyl hydrogen phosphate, hydrochloride salt] was run?
**A.** Its pIC50 is 9.00.

**Q.** What about the pIC50 (Bcl-2) of the same compound?
**A.** Its pIC50 is 9.00.

**Q.** How did the pIC50 (Bcl-XL) turn out when `O=C(NS(=O)(=O)c1ccc(N[C@H](CCN2CCN(CCOP(=O)(O)O)CC2)CSc2ccccc2)c(S(=O)(=O)C(F)(F)F)c1)c1ccc(N2CCC([C@@H](O)c3ccccc3-c3ccc(Cl)cc3)CC2)cc1` [Example 10, 2-(4-((R)-3-(4-(N-(4-(4-((R)-(4′-chlorobiphenyl-2-yl)(hydroxy)methyl)piperidin-1-yl)benzoyl)sulfamoyl)-2-(trifluoromethylsulfonyl)phenylamino)-4-(phenylthio)butyl)piperazin-1-yl)ethyl dihydrogen phosphate] was run?
**A.** Its pIC50 is 9.00.

**Q.** What about the pIC50 (Bcl-2) of the same compound?
**A.** Its pIC50 is 9.15.

**Q.** What does the source list for `CCN(CCOP(=O)(O)O)CC[C@H](CSc1ccccc1)Nc1ccc(S(=O)(=O)NC(=O)c2ccc(N3CCC([C@@H](O)c4ccccc4-c4ccc(Cl)cc4)CC3)cc2)cc1S(=O)(=O)C(F)(F)F` [Example 8, 2-(((R)-3-(4-(N-(4-(4-((R)-(4′-chlorobiphenyl-2-yl)(hydroxy)methyl)piperidin-1-yl)benzoyl)sulfamoyl)-2-(trifluoromethylsulfonyl)phenylamino)-4-(phenylthio)butyl)(ethyl)amino)ethyl dihydrogen phosphate, hydrochloride salt]?
**A.** pIC50 (Bcl-XL): 9.00; pIC50 (Bcl-2): 9.05

**Q.** What does the source list for `CCN(CCO)CC[C@H](CSc1ccccc1)Nc1ccc(S(=O)(=O)NC(=O)c2ccc(N3CCC([C@@H](N)c4ccccc4-c4ccc(Cl)cc4)CC3)cc2)cc1S(=O)(=O)C(F)(F)F` [Example 12, 4-(4-((R)-amino(4′-chlorobiphenyl-2-yl)methyl)piperidin-1-yl)-N-(4-((R)-4-(ethyl(2-hydroxyethyl)amino)-1-(phenylthio)butan-2-ylamino)-3-(trifluoromethylsulfonyl)phenylsulfonyl)benzamide, formic acid salt]?
**A.** pIC50 (Bcl-XL): 8.52; pIC50 (Bcl-2): 8.52

**Q.** How did the pIC50 (Bcl-XL) turn out when `CN(C)CC[C@H](CSc1ccccc1)Nc1ccc(S(=O)(=O)NC(=O)c2ccc(N3CCC([C@@H](O)c4ccccc4-c4ccc(Cl)cc4)CC3)cc2)cc1[N+](=O)[O-]` [Example 2, 4-(4-((R)-(4′-chlorobiphenyl-2-yl)(hydroxy)methyl)piperidin-1-yl)-N-(4-((R)-4-(dimethylamino)-1-(phenylthio)butan-2-ylamino)-3-nitrophenylsulfonyl)benzamide] was run?
**A.** Its pIC50 is 9.00.

**Q.** And the pIC50 (Bcl-2)?
**A.** The pIC50 was 9.52.

**Q.** `O=C(NS(=O)(=O)c1ccc(N[C@H](CCN2CCOCC2)CSc2ccccc2)c([N+](=O)[O-])c1)c1ccc(N2CCC([C@@H](O)c3ccccc3-c3ccc(Cl)cc3)CC2)cc1` [Example 16, 4-(4-((R)-(4′-chlorobiphenyl-2-yl)(hydroxy)methyl)piperidin-1-yl)-N-(4-((R)-4-morpholino-1-(phenylthio)butan-2-ylamino)-3-nitrophenylsulfonyl)benzamide] was tested. Which pIC50 (Bcl-XL) did it give?
**A.** Its pIC50 is 9.00.

**Q.** And the pIC50 (Bcl-2)?
**A.** Its pIC50 is 9.10.

**Q.** How did the pIC50 (Bcl-XL) turn out when `O=C(NS(=O)(=O)c1ccc(N[C@H](CCN(CCOP(=O)(O)O)CCOP(=O)(O)O)CSc2ccccc2)c(S(=O)(=O)C(F)(F)F)c1)c1ccc(N2CCC([C@@H](O)c3ccccc3-c3ccc(Cl)cc3)CC2)cc1` [Example 7, 2,2′-((R)-3-(4-(N-(4-(4-((R)-(4′-chlorobiphenyl-2-yl)(hydroxy)methyl)piperidin-1-yl)benzoyl)sulfamoyl)-2-(trifluoromethylsulfonyl)phenylamino)-4-(phenylthio)butylazanediyl)bis(ethane-2,1-diyl)bis(dihydrogen phosphate), hydrochloride salt] was run?
**A.** Its pIC50 is 9.00.

**Q.** And the pIC50 (Bcl-2)?
**A.** Its pIC50 is 8.70.

**Q.** With `CCN(CC)C[C@H]1COCCN1CC[C@H](CSc1ccccc1)Nc1ccc(S(=O)(=O)NC(=O)c2ccc(N3CCC([C@@H](O)c4ccccc4-c4ccc(Cl)cc4)CC3)cc2)cc1S(=O)(=O)C(F)(F)F` [Example 20, 4-(4-((R)-(4′-chlorobiphenyl-2-yl)(hydroxy)methyl)piperidin-1-yl)-N-(4-((R)-4-((S)-3-((diethylamino)methyl)morpholino)-1-(phenylthio)butan-2-ylamino)-3-(trifluoromethylsulfonyl)phenylsulfonyl)benzamide] as the compound, how does the pIC50 (Bcl-XL) read?
**A.** The pIC50 was 9.00.

**Q.** And the pIC50 (Bcl-2)?
**A.** Its pIC50 is 9.52.
